Laboratory results from US11370775B2, “Substituted benzimidazole derivatives as D-amino acid oxidase (DAAO) inhibitors” (NATIONAL TAIWAN UNIVERSITY, priority 2016, dated 2022).

Assays:
[1] = tested on: MK-801-induced anhedonia in C57BL/6 mice; assay: Sucrose preference test, MK-801-induced anhedonia; format: in vivo; conditions: for Effect on MK-801 induced anhedonia (sucrose preference): MK-801 0.2 mg/kg i.p., mice; for Effect on anhedonia after acute MK-801 injection (FIG. 2): different dosages
Description: (§1) The NMDA-receptor antagonist MK-801-induced negative or cognitive deficits in C57BL/6 mice were in a well-established drug-induced schizophrenia mouse model and as a useful pharmacological animal model to identify if the RS-D7, its analog and its prodrug improve the symptoms through the NMDA receptor.
(§2) All wild-type (WT) mice used in this study were backcrossed onto a C57BL/6J background from the Laboratory Animal Center of National Taiwan University Hospital, and all behavioral examinations were conducted in WT mice. For acclimatizing to laboratory conditions, the mice were allowed free access to food and water and were housed in groups with a 12 hours light-dark cycle in a temperature and humidity controlled room of the Psychology Department, National Taiwan University. All animals within the age of 3 months were housed individually one week before experiment testing with food and water available ad libitum. In the beginning of the experiments, the mice were handled and weighted daily at least 1 week before the behavioral experiments. The entire animal procedures were performed according to protocols approved by the Animal Care and Use Committee established by the National Taiwan University.
(§3) MK-801 was dissolved in saline and administered at a volume of 0.01 ml/g body weight. RS-D7, Drug 12083 (analog of RS-D7) and was freshly dissolved in 1% CMC to the concentration of 2 mg/ml before usage. Prodrug 28095 was freshly dissolved in NMP:HP-beta-CD:H2O (5:25:70) to the concentration of 2 mg/ml before usage. All animals were given vehicle (saline) or MK-801 (0.2 mg/kg, i.p.) 25 minutes before the behavioral experiments. Both vehicle (1% CMC or NMP:HP-beta-CD:H2O) and experimental groups (RS-D7, Drug 12083 or Prodrug 28095) were treated after 5 minutes MK-801 administration with the appropriate dose via P.O. injections (at a volume of 0.01 ml/g body weight).
(§4) For investigating the treatment effect of RS-D7 for negative and cognitive symptoms, a series of three behavioral tests (run from the first to the third week), which included open field, sucrose preference test and prepulse inhibition were performed in sequence with a 1-week interval between tests.
To assess the anhedonia, one of the negative symptoms of schizophrenia, all mice underwent 4-day testing. In the beginning of the sucrose preference, all mice were deprived of water for 23 hours in all the experiment from one day before the first day. On the first day, each mouse was given free access to 2 identical bottles with water for 1 hour. Then, the 2 identical bottles were replaced that one filled with 1% (wt/vol) sucrose solution and the other with water on the second day. On the third and fourth day, each mouse was received MK-801 and RS-D7 treatment before the experiment, and also free accessed to bottles for 1 hour. After the experiment, the 2 bottles were weighted to measure the 1-hour consumption of sucrose solution and water. The sucrose preference percentage (SPP) was calculated using the following formula: % SPP=sucrose solution consumption (g)×100%/[water consumption (g)+sucrose solution consumption (g)].

[2] = tested on: MK-801-induced PPI deficit in C57BL/6 mice; assay: Prepulse inhibition, MK-801-induced PPI deficit; format: in vivo; conditions: MK-801 0.2 mg/kg i.p.
Description: as §1, §2, §3, §4
To assess the sensorimotor gating function, each mouse was tested with the SR-LAB startle apparatus (San Diego Instruments, San Diego, Calif., USA). The background noise was 72 dB during testing. Each session was initiated with a 5 minutes acclimatization period followed by 64 trials, consisting of pulse-alone (P-alone) trials, prepulse pulse (pp+P) trials, and no stimulation (nostim) trials. A P-alone trial was a 120 dB white noise burst of 40 msec. In the pp+P trials, the 120 dB pulse was preceded (by 100 msec) by a 20 msec of white noise prepulse burst of 78 dB (PP6), 82 dB (PP10), or 90 dB (PP18). The nostim trials consisted of background noise only. The session began and ended with a block of six presentations of the P-alone trial. Between these two blocks, the rest of the 52 trials were performed pseudorandomly and separated by intertrial intervals of 15 sec on average (varying between 10 and 20 sec). PPI was calculated as a percentage of the startle response using the formula: % PPI=100× [(P-alone score)-(pp+P score)]/(pulse-alone score), where the pulse-alone score was the average of the pulse-alone values from the in-between block of 52 trials.

Structure (SMILES) | Effect on MK-801 induced anhedonia (sucrose preference) ([1]; 100 mg/kg P.O.) | Effect on MK-801 induced anhedonia (sucrose preference) ([1]; 200 mg/kg P.O.) | Effect on MK-801 induced anhedonia (sucrose preference) ([1]; 400 mg/kg P.O.) | Effect on anhedonia after acute MK-801 injection (FIG. 2) [1] | Effect on MK-801 induced PPI deficit ([2]; 100 mg/kg P.O.) | Effect on MK-801 induced PPI deficit ([2]; 200 mg/kg P.O.) | Effect on MK-801 induced PPI deficit ([2]; 400 mg/kg P.O.) | Effect on MK-801 induced anhedonia (sucrose preference) ([1]; 20 mg/kg P.O.) | Effect on MK-801 induced PPI deficit ([2]; 20 mg/kg P.O.) | Effect on MK-801 induced PPI deficit ([2]; 40 mg/kg P.O.)
COc1c(C)cnc(C[S+]([O-])c2nc3ccc(O)cc3[nH]2)c1C (centres unmarked) [RS-D7, reference compound] | rescued the MK-801 induced anhedonia deficit | rescued the MK-801 induced anhedonia deficit | rescued the MK-801 induced anhedonia deficit | rescue the anhedonia after acute MK-801 injection | significantly alleviated MK-801 induced PPI deficit | significantly alleviated MK-801 induced PPI deficit | significantly alleviated MK-801 induced PPI deficit |  |  | 
COc1c(C)cnc(CSc2nc3cc(C(=O)O)ccc3n2CCC2=CCCCC2)c1C [compound 12083, 1-(2-(cyclohex-1-en-1-yl)ethyl)-2-(((4-methoxy-3,5-dimethylpyridin-2-yl)methyl)thio)-1H-benzo[d]imidazole-5-carboxylic acid] |  |  |  | rescue the anhedonia after acute MK-801 injection |  |  |  | normalized MK-801 induced anhedonia | significantly alleviated MK-801 induced PPI deficit | significantly alleviated MK-801 induced PPI deficit
